Like-named read-outs stand apart in the source and are kept apart here.
Experiments:
[1] = tested on: children with type 1 diabetes with induced hypoglycemia; conditions: injected (SC) (Stenninger 1993); cited from earlier work
adults with hypoglycemia = conditions: cited from earlier work
[2] = tested on: patients with type 1 diabetes; assay: Phase III crossover study, intranasal vs IM glucagon after insulin-induced hypoglycemia (Example 9); assay type: in vivo, human; conditions: post-dosing
Protocol: A multiple center, randomized, two-way, crossover Phase III study in which patients with type 1 diabetes (T1D, n=75) were enrolled to evaluate the effectiveness and safety of a single dose of intranasally administered glucagon (the powder that is the subject of this invention) compared to glucagon administered by IM injection following insulin-induced hypoglycemia was conducted. The primary endpoint in this study was the proportion of patients who achieved an increase in blood glucose levels to ≥70 mg/dL within 30 minutes of treatment with glucagon or a […] increment in blood glucose within 30 minutes of treatment with glucagon. The protocol used insulin to reduce blood glucose levels to the hypoglycemic range (target nadir of <50 mg/dL).

[3] = water; cited from earlier work

Substance	Time for which plasma glucose levels continued to rise [1]	Time for which glucose levels continued to increase after administration (adults with hypoglycemia; adults with hypoglycemia, injected (Hvidberg 1994; Rosenfalck 1992))	Time after dosing at which glucose levels reach a plateau (adults with hypoglycemia; adults with type 1 diabetes and insulin-induced hypoglycemia, injected (Rosenfalck 1992))	Time for which glucose levels continued to increase after administration (adults with hypoglycemia; healthy adults with insulin induced hypoglycemia, injected (Hvidberg 1994))	Time by which blood glucose increased to within the normal range in most subjects [2]	Aqueous solubility [3]
glucagon [injected glucagon]	at least 45 minutes	at least 90 minutes	at least 90 minutes	at least 90 minutes	about 15 minutes	
hydroxylpropyl-β-CD [HP-β-CD]						higher aqueous solubility than α-CD

Reference: patent publication US12370241B2, “Nasal powder formulation for treatment of hypoglycemia” (AMPHASTAR PHARMACEUTICALS, INC., priority 2015, dated 2025)
